{
  "source": "patent US20230000813A1",
  "about": "“COMPOUND FOR THE TREATMENT OF BOVINE OR SWINE RESPIRATORY DISEASE” (Intervet Inc., priority 2016, published 2023)",
  "key": {"[1]": {"tested_on": "M. haemolytica", "test": "Mannheimia haemolytica cattle lung infection model, efficacy (Example 10)", "type": "in vivo, cattle calves", "conditions": "for Food consumption, cumulated for all animals in the group: 3 calves; for Bacteriological Cure (x of n) / Survival (x of n): calves infected with M. haemolytica, SC, single", "experimental": "Unless otherwise described the study was conducted as described in Clinical Example 8\nCalves were infected via intratracheal instillation of appr. 300 mL of M. haemolytica PBS suspension containing approximately 4×10^9 CFU M. haemolytica in late log phase on Day 0.\nOne hour later three animals each were treated with 10 mg/kg of Compound 231(referred to as C. 231) (80 mg/mL in 10% Poloxamer 188), or 10 mg/kg or 5 mg/kg Compound 329 (referred to as C. 329) (150 mg/mL in 35% Cavitron).\nThe following clinical findings were recorded: The general behavior scores of the animals before (DO am) and after infection with M. haemolytica in the different treated and control groups are indicated in FIG. 8-1: 0=normal; 1=slightly depressive, 2=moderately depressive, 3=highly depressive, 4=recumbency.\nThe following pathomorphological findings after section on Day 2 were recorded: After measuring the body weight and the lung weight the Lung body mass ratio was calculated as shown in FIG. 8-2. A healthy animal has a lung body mass ration around 1.7 or lower. The area percentage of lung consolidations compared to the total lung tissue and the lung score determined that is a combined score of such percentage of lung consoldiations and the grade. For the “grade” the degree of lung consolidation score was graded from 0 to 3 for each of eight lung lobes: 0 no visible changes, 1 low graded colour changes or induration, 2 medium graded induration, 3 high graded induration, hepatisation, necrosis.\nThe geometrical means (CFU/g tissue) of bacteriological re-isolations of Mannheimia haemolytica from lung tissue are illustrated in FIG. 8-4."}, "[2]": {"tested_on": "15 isolates of H. parasuis", "test": "MIC50/MIC90, agar-dilution method (GC agar base)", "type": "cell-based", "conditions": "Haemophilus parasuis", "experimental": "The in vitro activity of 3 representative compounds of this invention against 15 isolates of H. parasuis was determined. All strains were isolated from the respiratory tract of swine in different European countries The MICs for all isolates were determined by using the agar-dilution method according to CLSI document VET01-A4 [1]with the following modification: GC agar base was used instead of Mueller-Hinton agar base for the preparation of the agar-dilution plates. Results were interpreted according to the CLSI document VET01-S3."}, "[3]": {"tested_on": "M. haemolytica M7/2, serotype A:1, ID 6357", "test": "Mannheimia haemolytica cattle lung infection model, efficacy (Example 8)", "type": "in vivo, Holstein black pied cattle calves", "parameters": "key to General behavior, score: 0 = normal; 1 = slightly depressive; 2 = moderately depressive; 3 = highly depressive; 4 = recumbency; key to Re-isolation of bacteria, Left Bronchial swab / Re-isolation of bacteria, Right Bronchial swab: − no bacterial growth; + low; ++ medium; +++ high amount of bacterial growth", "conditions": "for Food consumption, cumulated for all animals in the group: 3 calves; for Lung score (including grade and percent Lung consolidation): grade of consolidation 0 to 3", "experimental": "15 male Holstein black pied cattle calves of ca. 4 months age were randomly assigned to the study groups ensuring an equal distribution of body weight. The animal weight was approximately 98-133.5 kg on D-1.\nCalves were infected on Day 0 via intratracheal instillation of approximately 300 mL of a M. haemolytica PBS suspension containing approximately 3×10^9 CFU M. haemolytica in late log phase.\nThree animals each were treated one hour after infection by subcutaneous (SC) administration of Compound 329 in an aqueous 30% (w/v) Captisol® solution for injection at a dose of 10 mg/kg BW.\nThe respective dose volume was injected on the sides of the thoracic wall. Injection volumes exceeding 10 mL were divided into one portion of 10 mL administered to the left side and the remaining rest administered at different injection sites on the other side. Animals in one control group were treated with a commercially available Enrofloxacin solution (Baytril ® 10%, Bayer Animal Health) at the recommended dose of 10 mg/kg BW. The second control group was treated with the galenic diluent (30% (w/v) Captisol®, dissolved in water) as placebo.\nFood consumption was measured. Single individual blood samples were collected from the 12 animals at the following time points: D-1 (predose), 30 minutes, 2, 4, 6, 24 h and at D2 (ca. 45 h) after administration. After the day 2 blood sampling, the infected cattle were slaughtered. The lungs were weighted. Lung states and lung scores were observed morphologically.\nAt necropsy from animals treated with test items or the positive control, samples of epithelial lining fluid (ELF), lung tissue, and additionally tissue of liver and kidney were collected. From each lung two bacteriological swaps were taken from the left and right bronchus.\nFrom each lung two tissue samples were collected by clipping from at least two locations, one from morphologically unchanged tissue, one from the edge of pathomorphologically changed areas."}, "[4]": {"conditions": "infected calves, SC 10 mg/kg, in words"}, "[5]": {"conditions": "section on day 2, infected calves, SC 10 mg/kg, individual animals and mean, 10 mg/kg"}, "[6]": {"conditions": "section on day 2, infected calves, SC 10 mg/kg, individual animals and mean, 10 mg/kg, mean"}, "[7]": {"conditions": "section on day 2, infected calves, SC single 10 mg/kg, individual animals"}},
  "note": "“And” between values parts separate entries of the source, which are not always exact repeats. Equal values may be shown once. Marks after values point to notes of the source that are not given here.",
  "data": [
    {"smiles": "CC(C)(N)C(NC(=O)c1ccc(C#Cc2ccc(CNC3CC3)cc2)cc1)C(=O)NO", "note": "(centres unmarked) [C. 329]", "values": [
      {"measurement": "Food consumption, cumulated for all animals in the group", "setting": "[1]; D 0 am, after infection and treatment, 5 mg/kg", "result": 1213, "unit": "g"},
      {"measurement": "Food consumption, cumulated for all animals in the group", "setting": "[1]; D 0 am, after infection and treatment, 10 mg/kg", "result": "1800** g"},
      {"measurement": "Food consumption, cumulated for all animals in the group", "setting": "[1]; D 0 pm, 5 mg/kg", "result": 4800, "unit": "g"},
      {"measurement": "Food consumption, cumulated for all animals in the group", "setting": "[1]; D 0 pm, 10 mg/kg", "result": 4800, "unit": "g"},
      {"measurement": "Food consumption, cumulated for all animals in the group", "setting": "[1]; D +1 am, 5 mg/kg", "result": 4800, "unit": "g"},
      {"measurement": "Food consumption, cumulated for all animals in the group", "setting": "[1]; D +1 am, 10 mg/kg", "result": 4800, "unit": "g"},
      {"measurement": "Food consumption, cumulated for all animals in the group", "setting": "[1]; D +1 pm, 5 mg/kg", "result": 4800, "unit": "g"},
      {"measurement": "Food consumption, cumulated for all animals in the group", "setting": "[1]; D +1 pm, 10 mg/kg", "result": 4800, "unit": "g"},
      {"measurement": "Food consumption, cumulated for all animals in the group", "setting": "[1]; D −1 (before infection), 5 mg/kg", "result": 4800, "unit": "g"},
      {"measurement": "Food consumption, cumulated for all animals in the group", "setting": "[1]; D −1 (before infection), 10 mg/kg", "result": 4800, "unit": "g"},
      {"measurement": "Bacteriological Cure (x of n)", "setting": "[1]; 5 mg/kg BW", "result": "1/3"},
      {"measurement": "Survival (x of n)", "setting": "[1]; 5 mg/kg BW", "result": "3/3"},
      {"measurement": "Bacteriological Cure (x of n)", "setting": "[1]; 10 mg/kg BW", "result": "3/3"},
      {"measurement": "Survival (x of n)", "setting": "[1]; 10 mg/kg BW", "result": "3/3"},
      {"measurement": "efficacy against an artificial lung infection with M. haemolytica in the calf", "setting": "[1]; tested dosages 10 mg/kg for C 231 and 10 mg/kg and 5 mg/kg for C 329, conclusion in words", "result": "effective"},
      {"measurement": "MIC50", "setting": "[2]", "result": 2, "unit": "µg/mL"},
      {"measurement": "MIC90", "setting": "[2]", "result": 4, "unit": "µg/mL"},
      {"measurement": "General behavior, score", "setting": "[3]; D 0 am (before infection), calves, SC 10 mg/kg, individual animals and mean, 10 mg/kg", "result": 0},
      {"measurement": "General behavior, score", "setting": "[3]; D 0 am (before infection), calves, SC 10 mg/kg, individual animals and mean, 10 mg/kg, mean", "result": 0.0, "unit": "score"},
      {"measurement": "Food consumption, cumulated for all animals in the group", "setting": "[3]; D 0 am, after infection and treatment, SC 10 mg/kg", "result": 470, "unit": "g"},
      {"measurement": "Food consumption, cumulated for all animals in the group", "setting": "[3]; D 0 pm, SC 10 mg/kg", "result": "1800** g"},
      {"measurement": "General behavior, score", "setting": "[3]; D 0 pm, calves infected with M. haemolytica, SC 10 mg/kg 1 h after infection, individual animals and mean, 10 mg/kg", "result": "2 and 1 (2×)"},
      {"measurement": "General behavior, score", "setting": "[3]; D 0 pm, calves infected with M. haemolytica, SC 10 mg/kg 1 h after infection, individual animals and mean, 10 mg/kg, mean", "result": 1.3, "unit": "score"},
      {"measurement": "General behavior, score", "setting": "[3]; D 1 am, calves infected with M. haemolytica, SC 10 mg/kg 1 h after infection, individual animals and mean, 10 mg/kg", "result": "1 and 0 (2×)"},
      {"measurement": "General behavior, score", "setting": "[3]; D 1 am, calves infected with M. haemolytica, SC 10 mg/kg 1 h after infection, individual animals and mean, 10 mg/kg, mean", "result": 0.3, "unit": "score"},
      {"measurement": "General behavior, score", "setting": "[3]; D 1 pm, calves infected with M. haemolytica, SC 10 mg/kg 1 h after infection, individual animals and mean, 10 mg/kg", "result": "1 (2×) and 0"},
      {"measurement": "General behavior, score", "setting": "[3]; D 1 pm, calves infected with M. haemolytica, SC 10 mg/kg 1 h after infection, individual animals and mean, 10 mg/kg, mean", "result": 0.7, "unit": "score"},
      {"measurement": "General behavior, score", "setting": "[3]; D 2 am, calves infected with M. haemolytica, SC 10 mg/kg 1 h after infection, individual animals and mean, 10 mg/kg", "result": 0},
      {"measurement": "General behavior, score", "setting": "[3]; D 2 am, calves infected with M. haemolytica, SC 10 mg/kg 1 h after infection, individual animals and mean, 10 mg/kg, mean", "result": 0.0, "unit": "score"},
      {"measurement": "Food consumption, cumulated for all animals in the group", "setting": "[3]; D +1 am, SC 10 mg/kg", "result": 4800, "unit": "g"},
      {"measurement": "Food consumption, cumulated for all animals in the group", "setting": "[3]; D +1 pm, SC 10 mg/kg", "result": 4800, "unit": "g"},
      {"measurement": "Food consumption, cumulated for all animals in the group", "setting": "[3]; D −1 (before infection), SC 10 mg/kg", "result": 4800, "unit": "g"},
      {"measurement": "general behavior and food uptake", "setting": "[3]; [4]", "result": "comparable to the positive control"},
      {"measurement": "mean bacterial re-isolation", "setting": "[3]; [4]", "result": "Very low"},
      {"measurement": "Lung score (including grade and percent Lung consolidation)", "setting": "[3]; [5]", "result": "32.4 and 29.5 and 37.7"},
      {"measurement": "Lung score (including grade and percent Lung consolidation)", "setting": "[3]; [6]", "result": 33.2},
      {"measurement": "Lung consolidations", "setting": "[3]; [5]", "result": "20.9% and 14.8% and 21.6%"},
      {"measurement": "Lung weight", "setting": "[3]; [5]", "result": "1717 g and 1549 g and 1583 g"},
      {"measurement": "Lung/body weight ratio", "setting": "[3]; [5]", "result": "~1.3% and 1.36% and 1.30% and 1.41%"},
      {"measurement": "Lung consolidations", "setting": "[3]; [6]", "result": 19.1, "unit": "%"},
      {"measurement": "Lung weight", "setting": "[3]; [6]", "result": 1616, "unit": "g"},
      {"measurement": "Re-isolation of bacteria, Left Bronchial swab", "setting": "[3]; [7]", "result": "−"},
      {"measurement": "Re-isolation of bacteria, Right Bronchial swab", "setting": "[3]; [7]", "result": "−"},
      {"measurement": "efficacy in the lung model infection with M. haemolytica in calves", "setting": "[3]; single SC treatment with 10 mg/kg BW, conclusion in words", "result": "good efficacy"}
    ]}
  ]
}
